One assay has as its target Genome polyprotein (dengue virus type 2, UniProt P29990). The assay is described as follows: flavivirus cap methylation enzyme inhibition – biochemical, confirmation dose response, primary screen (AID 588689). The assay is classed as functional.
For a further assay, the system named is CHO-K1. The assay is described as follows: Counterscreen for antagonists of the orexin 1 receptor (OX1R; HCRTR1): Homogeneous time resolved fluorescence (HTRF)-based cell-based dose response assay to identify antagonists of the parental CHO-K1 cell line. [Related pubchem assays (depositor defined):AID434989, AID435008, AID463079, AID485270, AID492963, AID492964, AID492965, AID493232, AID504699, AID504701]. The assay is classed as functional. The following applies: Cricetulus griseus. A general note: The purpose of a counterscreen is to sort out artefacts and off-target activity.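 Note: potency for inhibition of ATP-stimulated IP1 production as antagonists.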

Another assay concerns the target T1, Exodeoxyribonuclease V (Escherichia coli (strain K12), UniProt P04993+P07648+P08394).
T1 sequence (P04993 whole entry): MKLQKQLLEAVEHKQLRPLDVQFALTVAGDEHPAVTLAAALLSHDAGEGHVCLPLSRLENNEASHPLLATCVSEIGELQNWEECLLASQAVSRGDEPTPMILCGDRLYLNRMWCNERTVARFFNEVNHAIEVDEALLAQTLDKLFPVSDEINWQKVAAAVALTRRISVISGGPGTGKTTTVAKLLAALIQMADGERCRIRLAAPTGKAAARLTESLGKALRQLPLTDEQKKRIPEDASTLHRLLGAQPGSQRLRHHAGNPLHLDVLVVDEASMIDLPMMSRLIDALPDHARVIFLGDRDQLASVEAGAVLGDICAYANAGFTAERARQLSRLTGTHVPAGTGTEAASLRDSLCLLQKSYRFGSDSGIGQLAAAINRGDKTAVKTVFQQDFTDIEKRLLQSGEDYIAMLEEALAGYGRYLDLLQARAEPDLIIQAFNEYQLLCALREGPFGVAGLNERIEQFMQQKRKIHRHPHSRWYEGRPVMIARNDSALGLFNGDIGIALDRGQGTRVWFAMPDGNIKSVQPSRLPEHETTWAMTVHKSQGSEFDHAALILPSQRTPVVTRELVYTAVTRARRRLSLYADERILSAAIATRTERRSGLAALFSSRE
T1 sequence (P07648 whole entry): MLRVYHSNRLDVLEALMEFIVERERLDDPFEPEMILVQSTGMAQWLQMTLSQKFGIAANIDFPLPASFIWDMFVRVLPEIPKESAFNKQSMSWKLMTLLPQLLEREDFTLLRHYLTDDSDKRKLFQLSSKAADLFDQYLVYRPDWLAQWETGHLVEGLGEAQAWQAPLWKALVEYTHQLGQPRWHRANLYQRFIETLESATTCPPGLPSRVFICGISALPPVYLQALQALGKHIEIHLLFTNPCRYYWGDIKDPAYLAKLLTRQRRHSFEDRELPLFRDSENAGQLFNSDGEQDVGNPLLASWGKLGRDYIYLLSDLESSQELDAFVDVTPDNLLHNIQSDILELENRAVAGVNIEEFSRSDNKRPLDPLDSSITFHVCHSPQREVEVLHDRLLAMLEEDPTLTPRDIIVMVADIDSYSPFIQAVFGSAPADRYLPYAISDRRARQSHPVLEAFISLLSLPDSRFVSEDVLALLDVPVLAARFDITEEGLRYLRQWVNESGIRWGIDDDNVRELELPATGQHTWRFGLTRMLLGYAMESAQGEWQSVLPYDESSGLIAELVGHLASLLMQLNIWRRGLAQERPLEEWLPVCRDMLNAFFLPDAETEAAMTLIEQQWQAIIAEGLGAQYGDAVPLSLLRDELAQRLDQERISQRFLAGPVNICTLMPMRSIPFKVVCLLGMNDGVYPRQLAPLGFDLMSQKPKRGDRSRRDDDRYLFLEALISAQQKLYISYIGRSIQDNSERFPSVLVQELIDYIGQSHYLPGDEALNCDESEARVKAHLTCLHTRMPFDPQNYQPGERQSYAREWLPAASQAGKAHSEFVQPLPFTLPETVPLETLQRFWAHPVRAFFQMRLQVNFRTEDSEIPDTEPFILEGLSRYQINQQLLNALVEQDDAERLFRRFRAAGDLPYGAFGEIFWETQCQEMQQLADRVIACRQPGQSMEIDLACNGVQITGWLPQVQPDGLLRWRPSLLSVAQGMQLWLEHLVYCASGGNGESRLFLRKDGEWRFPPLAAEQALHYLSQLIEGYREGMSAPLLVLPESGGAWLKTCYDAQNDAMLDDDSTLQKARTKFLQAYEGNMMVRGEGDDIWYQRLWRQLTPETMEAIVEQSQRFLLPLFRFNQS
T1 sequence (P08394 whole entry): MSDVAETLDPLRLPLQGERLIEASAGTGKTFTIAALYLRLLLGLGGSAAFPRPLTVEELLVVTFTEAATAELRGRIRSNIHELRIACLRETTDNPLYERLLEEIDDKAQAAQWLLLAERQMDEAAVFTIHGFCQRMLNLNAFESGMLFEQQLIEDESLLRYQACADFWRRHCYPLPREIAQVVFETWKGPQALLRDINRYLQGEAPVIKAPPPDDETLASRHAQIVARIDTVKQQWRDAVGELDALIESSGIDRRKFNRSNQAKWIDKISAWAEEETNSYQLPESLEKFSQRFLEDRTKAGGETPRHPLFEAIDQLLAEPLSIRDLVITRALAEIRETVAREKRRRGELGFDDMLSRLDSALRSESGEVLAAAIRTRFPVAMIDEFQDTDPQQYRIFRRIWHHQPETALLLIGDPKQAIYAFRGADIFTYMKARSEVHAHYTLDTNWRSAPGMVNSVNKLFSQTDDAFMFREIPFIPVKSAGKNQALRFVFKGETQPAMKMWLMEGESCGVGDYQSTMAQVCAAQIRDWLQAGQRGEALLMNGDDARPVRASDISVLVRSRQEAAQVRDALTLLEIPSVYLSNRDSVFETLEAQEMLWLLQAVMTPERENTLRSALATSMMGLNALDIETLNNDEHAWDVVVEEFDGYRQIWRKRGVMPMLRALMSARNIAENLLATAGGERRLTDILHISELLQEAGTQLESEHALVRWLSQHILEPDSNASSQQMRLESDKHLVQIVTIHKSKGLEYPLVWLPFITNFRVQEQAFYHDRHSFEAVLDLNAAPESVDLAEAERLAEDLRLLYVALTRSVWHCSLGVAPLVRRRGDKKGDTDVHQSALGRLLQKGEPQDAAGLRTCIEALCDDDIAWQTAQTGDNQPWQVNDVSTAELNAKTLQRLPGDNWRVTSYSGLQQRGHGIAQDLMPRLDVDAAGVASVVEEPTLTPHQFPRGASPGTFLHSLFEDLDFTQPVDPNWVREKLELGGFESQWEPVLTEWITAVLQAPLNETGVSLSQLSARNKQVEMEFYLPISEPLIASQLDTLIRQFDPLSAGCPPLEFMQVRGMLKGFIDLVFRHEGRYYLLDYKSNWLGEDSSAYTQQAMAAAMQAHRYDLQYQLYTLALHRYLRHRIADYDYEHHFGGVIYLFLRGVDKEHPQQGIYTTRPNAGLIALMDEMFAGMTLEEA
The assay is described as follows: RecBCD inhibition via phage-restricted bacterial growth – absorbance, V66 E. coli, mutant T4 phage, counter-screen for AddAB inhibitor project, dose response (AID 492957). The assay is classed as functional, cell-based, Escherichia coli str. K-12 substr. MG1655.

Activity calls are given as the source filed them. The rule behind the calls is not given here.

Chain of Genome polyprotein (P29990 2492-3391 limits assumed): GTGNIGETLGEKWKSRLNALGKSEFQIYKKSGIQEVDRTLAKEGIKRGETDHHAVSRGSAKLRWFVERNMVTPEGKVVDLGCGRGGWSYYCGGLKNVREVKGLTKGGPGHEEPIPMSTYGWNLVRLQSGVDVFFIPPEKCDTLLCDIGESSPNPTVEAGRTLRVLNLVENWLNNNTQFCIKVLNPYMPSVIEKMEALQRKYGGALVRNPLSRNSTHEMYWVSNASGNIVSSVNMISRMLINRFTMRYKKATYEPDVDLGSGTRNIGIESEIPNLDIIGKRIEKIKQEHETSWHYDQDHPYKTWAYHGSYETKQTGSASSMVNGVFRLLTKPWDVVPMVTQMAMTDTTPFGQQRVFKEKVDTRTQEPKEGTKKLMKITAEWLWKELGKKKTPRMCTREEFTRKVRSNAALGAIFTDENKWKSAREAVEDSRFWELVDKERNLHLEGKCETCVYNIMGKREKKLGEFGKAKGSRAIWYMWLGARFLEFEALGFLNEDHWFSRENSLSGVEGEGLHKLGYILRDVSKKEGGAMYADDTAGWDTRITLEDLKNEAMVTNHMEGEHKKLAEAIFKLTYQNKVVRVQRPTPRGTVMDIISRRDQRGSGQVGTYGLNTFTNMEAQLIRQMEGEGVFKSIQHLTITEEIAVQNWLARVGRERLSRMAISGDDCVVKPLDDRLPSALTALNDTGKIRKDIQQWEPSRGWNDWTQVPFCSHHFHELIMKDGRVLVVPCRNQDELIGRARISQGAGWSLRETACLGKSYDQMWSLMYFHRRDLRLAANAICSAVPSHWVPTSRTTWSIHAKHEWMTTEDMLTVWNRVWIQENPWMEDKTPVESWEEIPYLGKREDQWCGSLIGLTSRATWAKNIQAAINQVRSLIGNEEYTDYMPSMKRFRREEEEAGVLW

As for `CCc1ccc(S(=O)(=O)Nc2cc(SCC(=O)O)c(O)c3ccccc23)cc1`, the half-inhibitory concentration (IC50) (usually the concentration that inhibits the measured activity by half) at Genome polyprotein is 9.53 µM (active). On to `Oc1ccc(NC(=S)N=Nc2c(O)[nH]c3ccccc23)cc1`, for which the IC50 in the assay with CHO-K1 was > 66.2 µM (inactive). For the compound `CCCC(=O)NC(c1ccc(C(C)C)cc1)c1ccc2cccnc2c1O` (stereo not drawn), the IC50 on Exodeoxyribonuclease V is > 119 µM (inactive).

(Values after ChEMBL document CHEMBL1201862, “PubChem BioAssay data set” (2004).)
